According to patent US20180002319A1, “MACROCYCLIC PICOLINAMIDE COMPOUNDS WITH FUNGICIDAL ACTIVITY” (DOW AGROSCIENCES LLC, priority 2014, published 2018):
Read-outs that look alike come from different tables or passages of the source.

Legend:
[1] = tested on: Puccinia triticina; experiment: Wheat Brown Rust (PUCCRT) fungicidal activity; type: in vivo; conditions: for pest or weed control at 100 ppm: High Volume application; for pest or weed control at 121.5 g/ha: Low Volume application, 121.5 g/H
Outline: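 Yuma wheat seedlings at first-leaf stage sprayed to run-off with acetone/water (Triton X-100) solutions, inoculated with P. triticina spores before or after treatment. Overnight dark dew at 22° C, then greenhouse at 24° C; percent disease control from severity versus untreated plants.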

[2] = tested on: Zymoseptoria tritici; experiment: Leaf Blotch of Wheat (SEPTTR) fungicidal activity; type: in vivo; conditions: for pest or weed control at 121.5 g/ha: Low Volume application, 121.5 g/H
Outline: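 Wheat seedlings (Yuma, first leaf emerged) were sprayed to run-off with compound in acetone/water containing Triton X-100 and inoculated with Z. tritici spores before or after treatment. Percent disease control comes from 0–100% severity on treated versus untreated plants.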

[3] = 24 h, 1 day protectant, read-out: PUCCRT disease control, 1DP (1 Day Protectant)
[4] = 72 h, 3 day curative, read-out: PUCCRT disease control, 3DC (3 Day Curative)
[5] = 24 h, High Volume application, 100 ppm, wheat leaf blotch, 1 day protectant, read-out: SEPTTR disease control, 1DP (1 Day Protectant)
[6] = 72 h, High Volume application, 100 ppm, wheat leaf blotch, 3 day curative, read-out: SEPTTR disease control, 3DC (3 Day Curative)

Row | SMILES | pest or weed control at 100 ppm [1, 3] | pest or weed control at 100 ppm [1, 4] | pest or weed control at 100 ppm [2, 5] | pest or weed control at 100 ppm [2, 6] | further results
1 | COc1ccnc(C(=O)N[C@H]2COCCC[C@@H](CCC(C)C)[C@H](C)OC2=O)c1OC(C)=O [Compound 39] | > 80% | > 80% | > 80% | > 80% | melting point: 57 to 62 °C
2 | COc1ccnc(C(=O)N[C@H]2CCOC[C@H](Cc3ccccc3)[C@@H](OCC(C)C)[C@H](C)OC2=O)c1O [Compound 95] | > 80% | < 80% | > 80% | < 80% | melting point: 197 to 198 °C
3 | COc1ccnc(C(=O)N[C@H]2CCCC[C@H](Cc3ccccc3)[C@@H](Oc3ccccc3)[C@H](C)OC2=O)c1O [Compound 128] | > 80% | > 80% | > 80% | < 80% | –
4 | COc1ccc(C[C@H]2CCOC[C@H](NC(=O)c3nccc(OC)c3O)C(=O)O[C@@H](C)[C@@H]2Oc2ccccc2)cc1 [Compound 129] | > 80% | > 80% | > 80% | – | –
5 | CC[C@H]1CCOC[C@H](NC(=O)c2nccc(OC)c2O)C(=O)O[C@@H](C)[C@@H]1Oc1ccccc1 [Compound 130] | > 80% | > 80% | < 80% | > 80% | –
6 | CC[C@H]1CCOC[C@H](NC(=O)c2nccc(OC)c2O)C(=O)O[C@@H](C)[C@@H]1OCC(C)C [Compound 131] | > 80% | > 80% | – | < 80% | –
7 | COc1ccnc(C(=O)N[C@H]2COCC[C@H](Cc3ccc(F)cc3)[C@@H](Oc3ccccc3)[C@H](C)OC2=O)c1O [Compound 132] | > 80% | > 80% | > 80% | – | –
8 | COc1ccnc(C(=O)N[C@H]2COCC[C@H](Cc3ccc(F)cc3)[C@@H](OCC3CC3)[C@H](C)OC2=O)c1O [Compound 133] | > 80% | > 80% | < 80% | < 80% | –
9 | COc1ccnc(C(=O)N[C@H]2COCC[C@H](Cc3ccc(F)cc3)[C@@H](OC(=O)C(C)C)[C@H](C)OC2=O)c1O [Compound 134] | > 80% | < 80% | > 80% | > 80% | –
10 | CC[C@H]1CCOC[C@H](NC(=O)c2nccc(OC)c2O)C(=O)O[C@@H](C)[C@@H]1OC(=O)c1ccccc1 [Compound 135] | > 80% | > 80% | > 80% | > 80% | –
11 | CC[C@H]1CCOC[C@H](NC(=O)c2nccc(OC)c2O)C(=O)O[C@@H](C)[C@@H]1OC(=O)C1CC1 [Compound 136] | > 80% | > 80% | – | < 80% | –
12 | CCC[C@H]1CCCC[C@H](NC(=O)c2nccc(OC)c2OCOC(C)=O)C(=O)O[C@@H](C)[C@@H]1OCC(C)C [compound 30, ((2-(((3S,8S,9R,10S)-9-isobutoxy-10-methyl-2-oxo-8-propyloxecan-3-yl)carbamoyl)-4-methoxypyridin-3-yl)oxy)methyl acetate] | – | – | – | – | pest or weed control at 121.5 g/ha [1, 3]: > 80%; pest or weed control at 121.5 g/ha [1, 4]: < 80%; pest or weed control at 121.5 g/ha ([2]; 24 h, wheat leaf blotch, 1 day protectant, read-out: SEPTTR disease control, 1DP (1 Day Protectant)): < 80%; pest or weed control at 121.5 g/ha ([2]; 72 h, wheat leaf blotch, 3 day curative, read-out: SEPTTR disease control, 3DC (3 Day Curative)): < 80%
13 | CCC[C@H]1CCCC[C@H](NC(=O)c2nccc(OC)c2O)C(=O)O[C@@H](C)[C@@H]1OCC(C)C [compound 105, 3-hydroxy-N-((3S,8S,9R,10S)-9-isobutoxy-10-methyl-2-oxo-8-propyloxecan-3-yl)-4-methoxypicolinamide] | < 80% | < 80% | – | – | pest or weed control at 100 ppm ([2]; 24 h, read-out: SEPTTR disease control, 1DP (1 Day Protectant)): < 80%; pest or weed control at 100 ppm ([2]; 72 h, read-out: SEPTTR disease control, 3DC (3 Day Curative)): < 80%
